The source of these data is US20070009956A1 (Council of Scientific and Industrial Research, priority 2003, published 2007).

Positions count from the first letter of the chain named. “Also recorded” adds a separate entry of the source. Where a name gives a salt, the structure may show the parent alone.

Experiment [1] has as its target T1, α-crystallin (Bos taurus, UniProt P02470+P02510).
T1 construct: α-Crystallin was purified from calf eye lenses previously described (24); from tissue; host or cells: calf eye lenses
T1 sequence (P02470 1-173): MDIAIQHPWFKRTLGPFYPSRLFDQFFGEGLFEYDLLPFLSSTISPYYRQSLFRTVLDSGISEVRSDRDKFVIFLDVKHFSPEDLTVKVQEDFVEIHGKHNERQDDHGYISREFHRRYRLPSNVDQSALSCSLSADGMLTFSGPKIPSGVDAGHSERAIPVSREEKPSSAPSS
T1 sequence (P02510 1-175): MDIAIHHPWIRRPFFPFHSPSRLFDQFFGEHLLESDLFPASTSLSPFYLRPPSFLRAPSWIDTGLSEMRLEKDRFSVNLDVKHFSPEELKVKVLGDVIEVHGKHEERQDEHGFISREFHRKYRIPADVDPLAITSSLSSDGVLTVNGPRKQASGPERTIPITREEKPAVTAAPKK
In words: Circular dichroism spectra. More on the design: species or system calf. The protocol:
Circular dichroism spectra were recorded using a Jasco J-715 Spectropolarimeter. All spectra are the average of 4 accumulations.
(In general: CD spectra are sensitive to the conformation of chiral molecules.)

The target of experiment [2] is T2, recombinant human αA-crystallin (Homo sapiens, UniProt P02489).
T2 construct: made in house; host or cells: Escherichia coli
T2 sequence (P02489 1-173): T1 sequence (P02470 1-173) with I3V, A4T, E91D, S142C, P147Q, S148T, V150L, G153T, S155A, S168T
In words: DTT-induced aggregation of insulin, chaperone-like activity of αA-crystallin. The format is biochemical. Particulars: 37° C., 1:2 (w/w) to insulin.
Procedure: (§1) All chaperone assays were carried out in 10 mM phosphate buffer. pH 7.4, containing 100 mM NaCl (Buffer A). […] Insulin (0.2 mg/ml) was then added and reduction of insulin was initiated by adding 20 ρL of 1 M DTT to 1.2 ml of the sample. The extent of aggregation of insulin was measured as a function of time by monitoring 90° scattering at 465 nm using a Hitachi F-4000 fluorescence spectrophotometer. The excitation and emission band passes were set at 3 nm.

Experiment [3] has as its target T1, α-crystallin. In words: Glycerol gradient sedimentation. Details: species or system calf. As to the method:
Glycerol gradient centrifugation was carried out essentially as described by Lambert et al. (43). α-Crystallin, α-A- or α-B-crystallin (2 mg/ml) was incubated in 50 mM Tris HCl buffer (pH 7.4) containing 100 mM NaCl, 1 mM EDTA alone or in the presence of 300 mM Arg.HCl for 2 hours at 37° C. The samples (0.5 ml) were loaded on top of a 12 ml linear grddient of glycerol (10-40%) made in 50 mM Tris-HCl buffer, pH 7.4, containing 100 mM NaCl and 1 mM EDTA. Arg.HCl-treated α-crystllin samples were run in the gradient also containing 300 mM Arg.HCl. The tubes were centriflged for 18 hours at 30000 rpm in a Beckman SW41 rotor at 4° C. Fractions (0.3 ml) were withdrawn from the top using a Haake-Buchler Auto Densi-Flowt HC gradient former/remover and optical density at 280 nm of the fractions were measured using a Shimadzu W-1601 spectrophotometer. To estimate the molecular masses of the α-crystallin samples, proteins with defined molecular masses such as thyroglobulin (669 kDa), catalase (240 kDa) and aldolase (158 kDa) were used.

The target of the next experiment is T3, R116C αA-crystallin (Homo sapiens, UniProt P02489, R116C).
T3 sequence (P02489 1-173 R116C): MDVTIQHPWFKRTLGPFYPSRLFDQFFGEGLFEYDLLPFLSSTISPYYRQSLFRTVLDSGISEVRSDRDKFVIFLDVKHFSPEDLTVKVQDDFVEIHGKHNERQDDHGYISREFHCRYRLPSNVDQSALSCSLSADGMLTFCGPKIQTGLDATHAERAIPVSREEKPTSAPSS
The format is biochemical. Particulars: 500 mM, data not shown.

Experiment [4] concerns the target T4, recombinant human αB-crystallin (Homo sapiens, UniProt P02511).
T4 construct: made in house; host or cells: Escherichia coli
T4 sequence (P02511 1-175): T1 sequence (P02510 1-175) with A40T, I61F, A132T, A152V
In words: DTT-induced aggregation of insulin, chaperone-like activity of αB-crystallin. Particulars: 37° C., 1:4 (w/w) to insulin. The experiment is classed as biochemical.
Procedure: as §1

A further experiment deals with insulin. In words: DTT-induced aggregation of insulin without α-crystallin. The following applies: 37° C., no α-crystallin. The experiment is classed as biochemical.
The target of experiment [5] is T1, α-crystallin. In words: Thermally induced aggregation of ξ-crystallin at 43° C., chaperone activity of α-crystallin. The format is biochemical, calf. Particulars: 1:4 (w/w) α- to ξ-crystallin, preincubation with 100 mM Arg.HCl, 53% without. The protocol:
Chaperone activity measurement of α-crystallin towards the thermal aggregation of ε-crystallin was performed as described in our earlier study (25). Buffer A either in the absence or in the presence of α-crystallin (0.025 mg/ml) and required concentrations of Arg.HCl was incubated at 43° C. for 3 min in the thermostated cuvette holder of the fluorescence spectrophotometer. ε-Crystallin was then added to a final concentration of 0.1 mg/mL The extent of aggregation was monitored as a function of time by measring the scalr of 465 nm light as descnbed above, […]

Experiment [6] concerns the target T1, α-crystallin. In words: Intrinsic tryptophan fluorescence. More on the design: species or system calf. The following applies: 37° C., in the presence of Arg.HCl. As to the method: Fluorescence spectra were recorded using a Hitachi F-4000 Fluorescence Spectrophotometerequipped with a thermostated cuvette holder. All the studies were performed at 37° C. All spectra were recorded in the corrected spectrum mode. The nirinsic tryptophan fluorescence spectra of α-crystllin (0.2 mg/ml) in Buffer A alone or in the buffer containing the required concentrations of Arg.HCl were recorded by exciting the sample at 295 nm with the excitation and emission band passes set at 3 nm.

The target in experiment [7] is T5, calf eye lens α-crystallin (Bos taurus, UniProt P02470+P02510).
T5 sequence (P02470 1-173): T1 sequence (P02470 1-173)
T5 sequence (P02510 1-175): T1 sequence (P02510 1-175)
The experiment can be described thus: DTT-induced aggregation of insulin, chaperone-like activity of α-crystallin. Particulars: for protection offered by α-crystallin: 25° C., α-crystallin to insulin 1:1 (w/w); for effect on the chaperone-like activity of α-crystallin: α-crystallin 0.1 mg/ml, insulin 0.2 mg/ml; for percent protection offered by α-crystallin: 36% in the absence of Lys.HCl.
Procedure: as §1

Experiment [8] addresses T1, α-crystallin. In words: ANS binding fluorescence. Details: species or system calf. The following applies: 37° C., 100 mM Arg.HCl. As to the method:
To study the binding of the hydrophobic probe, ANS, to α-crystallin, 12 uL of 10 mM methanolic solution of ANS was added to 1.2 ml of a 0.5 mg/ml solution of α-crystallin in Buffer A alone or in the buffer containing the required concentrations of Arg.HCl. The samples were excited at 365 nm and emission spectra recorded from 400-600 nm at 37° C. […] All spectra were corrected for the respective blanks. Spectra were recorded in the corrected spectrum mode.

The target in the next experiment is T6, R120G αB-crystallin (Homo sapiens, UniProt P02511, R120G).
T6 sequence (P02511 1-175 R120G): T1 sequence (P02510 1-175) with A40T, I61F, R120G, A132T, A152V
The format is biochemical. Particulars: 37° C., 0.5:1 ratio to insulin, 300 mM Arg.HCl; negative protection without.

For experiment [9], the target named is T7, α-crystallin (Homo sapiens, UniProt P02489+P02511).
T7 sequence (P02489 1-173): T3 sequence (P02489 1-173 R116C) with C116R
T7 sequence (P02511 1-175): T1 sequence (P02510 1-175) with A40T, I61F, A132T, A152V
Particulars: 0.8-1.0 M Gdn.HCl; cited from earlier work.

The target in the next experiment is Hsp 16.3 (Mycobacterium tuberculosis, UniProt P9WMK1). The following applies: Gdn.HCl-induced perturbation of structure; cited from earlier work.
The next experiment deals with Shumiya cataract rats. The following applies: fed orally; cited from earlier work.
Another experiment concerns diabetic rats. Particulars: rat, in vivo; cited from earlier work.

Hsp 16.3, sequence (P9WMK1 whole entry): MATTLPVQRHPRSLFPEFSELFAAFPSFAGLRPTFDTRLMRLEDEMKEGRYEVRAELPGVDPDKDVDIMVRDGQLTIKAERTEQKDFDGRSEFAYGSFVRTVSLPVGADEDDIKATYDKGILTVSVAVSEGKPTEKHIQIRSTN
Procedure for R120G αB-crystallin: as §1

`Cl.N=C(N)NCCCC(N)C(=O)O` (racemic) [DL-Arg.HCl, DLarginine hydrochloride]: the “far-UV CD spectra, secondary structure of α-crystallin” value on α-crystallin [1] (37° C., DL-Arg.HCl) is “is not altered”.

`Cl.N=C(N)NCCC[C@H](N)C(=O)O` [Arg.HCl, Arginine hydrochloride]: the “effect on the chaperone-like activity of αA-crystallin” value in [2] is listed as “enhanced the activity”. The “half-width of the sedimentation profile of α-crystallin” value at α-crystallin [3] (300 mM Arg.HCl, 8.75 in the absence) came to 6.25 x-axis units. Further, the “molecular mass of α-crystallin” value on α-crystallin [3] (300 mM Arg.HCl, ~700 kDa in the absence) is recorded as roughly 360 kDa. Further, on R116C αA-crystallin, the “effect on the activity of R116C αA-crystallin” value is given as “did not enhance”. Further, the “effect on the chaperone-like activity of αB-crystallin” value in experiment [4] is given as “enhanced the activity”. The “aggregation of insulin, additive alone” value in the experiment with insulin is “significantly increased aggregation”. Also, the “protective ability of α-crystallin against aggregation of ξ-crystallin” value at α-crystallin [5] was roughly 81%. Moreover, at α-crystallin [6], the “intrinsic tryptophan fluorescence spectrum of α-crystallin” value is reported as “did not change considerably”. The “protection offered by α-crystallin” value is recorded as 28% in experiment [7] (100 mM Arg.HCl, approximately 13% without) and “almost completely prevented” in experiment [7] (300 mM Arg.HCl). For the same compound, the “prevention of aggregation of insulin by α-crystallin” value in experiment [7] (37° C., 1:2 (w/w) α-crystallin:insulin, 200 mM Arg.HCl, ~36% without additive) was “completely”. The “effect on the chaperone-like activity of α-crystallin” value (shortened to “effect … of α-crystallin”) in experiment [7] (37° C.) is listed as “comparable”. In addition, the “near-UV CD spectra of α-crystallin” value at α-crystallin [1] (37° C., 100, 200, 300 mM Arg.HCl, region 270-290 nm) is reported as “subtle conformational changes at the tertiary structural level”. In addition, the “increase in the fluorescence intensity of ANS at the emission maximum” value at α-crystallin [8] is roughly 38%. The “extent of protection by R120G αB-crystallin” value on R120G αB-crystallin is given as roughly 75%.

For `N=C(N)N` [Gdn.HCl, guanidine hydrochloride], the “chaperone-like activity of α-crystallin” value on α-crystallin [9] is listed as “enhancement in its chaperone-like activity”. Moreover, the “chaperone-like activity of Hsp 16.3” value on Hsp 16.3 is reported as “enhanced”. Moreover, the “effect … of α-crystallin” value in [7] (37° C., hydrochloride) was “comparable”.

For `Cl.NCCCC[C@H](N)C(=O)O` [Lys.HCl, Lysine hydrochloride], on α-crystallin [3] (data not shown), the “size of α-crystallin in the presence of Lys.HCl” value was “change in the near-UV CD spectrum and size”. The “percent protection offered by α-crystallin” value in experiment [7] (37° C., 100 mM Lys.HCl) is reported as 17%; in experiment [7] (37° C., 300 mM Lys.HCl) it was “about 8%”. For the same compound, in experiment [7] (37° C., hydrochloride), the “effect … of α-crystallin” value is recorded as “did not enhance; also recorded: decreased the activity”. For the same compound, at α-crystallin [1] (data not shown), the “near-UV CD spectrum of α-crystallin in the presence of Lys.HCl” value is recorded as “change in the near-UV CD spectrum”.

For `N=C(N)NN` [aminoguanidine], the “opacification of the lens” value in the experiment with Shumiya cataract rats was “inhibited the opacification of the lens”. Further, the cataract formation result with diabetic rats is “inhibit cataract formation”.
